# Measurements: patent US20130302278A1, “USE OF TLR AGONISTS AND/OR TYPE 1 INTERFERONS TO ALLEVIATE TOXICITY OF TNF-R AGONIST THERAPEUTIC REGIMENS” (Immurx Inc., priority 2007, published 2013)
# Tests used:
# [1] = test system: TRP2-specific CD8^+ T cells; experiment: Degranulation (CD107a) and expansion of CD8+ T cells in peripheral blood 7 days after immunization; assay type: in vivo, C57BL/6 mice; settings: 7 days after i.v. immunization, 100 μg each, groups given with V peptide
# Description: Seven days later, mice were bled and cells were restimulated in vitro with TRP2(180-188) to assess the ability to produce IFN and translocate CD107a as described in “Methods.” Lymphocytes were identified by forward and side scatter and subsequently gated on all CD8^+ events. (A) Representative dot plots from vaccinated mice. The numbers in the upper right corners indicate the frequency of CD8^+ T cells that are positive for IFN and CD44 (top row) or IFN and CD107a (bottom row). (B) Percentage of peripheral blood lymphocytes expressing the CD8 antigen. P.001 by one-tailed ANOVA (C) Quantification of the percentages of CD8^+ cells that degranulated in response to peptide restimulation. In all cases, data presented are representative of at least 3 independent experiments. […] P.001 by one-tailed ANOVA.
# Cells from lung, spleen, or peripheral blood (peripheral blood lymphocytes [PBLs]) were incubated with 1 μg/mL Ova(257-264) or TRP2(180-188) peptide plus 10 U/mL IL-2 and 3 μg/mL brefeldin A in complete medium at 37° C. for 5 to 18 hours. […] The percentage of IFN^+ cells was calculated by subtracting the background observed with the irrelevant peptide control.
# [2] = test system: memory CD8^+ T cells; experiment: Memory CD8+ T-cell function (intracellular cytokine staining) 60+ days after vaccination; assay type: in vivo, mice; settings: spleen and lung
# Method: In the experiments depicted in FIG. 2, mice were immunized with 100 μg each of V peptide, CD40, and S-27609 in combinations as indicated. Memory CD8S functionality was assessed 65 days later. (A) Representative dot plots of IFN secretion by memory CD8^+ T cells isolated from spleens and lungs of vaccinated mice. Dot plots are gated on live CD8^+ cells, and numbers indicate the percentage of cells positive for both IFN and CD44. (B) Memory CD8^+ T-cell cytolytic activity was assessed by performing an in vivo cytotoxicity assay. Numbers reflect the percentage of antigen-specific lysis. (C,D) Quantification of relative and absolute numbers of memory CD8 cells expressing IFN in the spleen (C) and lung (D). Absolute numbers of positive cells were determined by multiplying the relative percentage of each cell population by the total number of cells isolated from each tissue. (E) Quantification of the in vivo cytotoxicity assay presented in panel B. P.001 by one-tailed ANOVA. […] Cells from panel F were analyzed for the ability to produce TNF and IL-2. […]
# Mice were immunized with 100 μg each of V peptide, CD40, and S-27609 in combinations as indicated. Memory CD8 functionality was assessed 65 days later. […] (B) Memory CD8^+ T-cell cytolytic activity was assessed by performing an in vivo cytotoxicity assay. […] (E) Quantification of the in vivo cytotoxicity assay presented in panel B. P.001 by one-tailed ANOVA. […]
# [3] = Serum transaminase (ALT, AST) analysis of hepatocellular injury; assay type: in vivo, mice; settings: 100 μg each i.v., 24 to 72 hours
# Method: (§1) FIG. 5 This figure contains experiments that reveal that the hepatic toxicity associated with CD40 monotherapy is reversed with TLR7 agonism. FIG. 5(A, B) contain kinetic analysis of serum transaminases. Mice were treated with PBS, 100 μg CD40, 100 μg TLR7*, or both intravenously. Serum was isolated at various time points afterward, and serum levels of alanine transaminase (A) or aspartate transaminase (B) were measured as described. Data are representative of 3 independent experiments, with n=3 to 8 mice per group, per time point. (C-F) Histologic analysis of livers treated with PBS (C), […] CD40 (D), 100 μg TLR7* (E), or 100 μg CD40 and 100 μg TLR7*(F) for 48 hours. (G) Semiquantitative assessment of histopathologic changes in livers from mice treated as above for 48 hours. […]
# (§2) Hepatocellular injury was biochemically assessed by measuring serum liver enzyme activity. […] Serum was harvested 24 to 72 hours later and levels of alanine aminotransferase (ALT) and aspartate aminotransferase (AST) were determined by standard clinical assays at the National Jewish Medical Center Core Lab (Denver, Colo.). For histologic analysis, livers from mice treated as above were fixed in buffered formalin, embedded in paraffin, sectioned, and stained with hematoxylin and eosin (H&E) prior to being coded and scored on a 0 to 4 scale in a blinded fashion. […]
# [4] = Macroscopic and histologic analysis of livers (H&E, 0 to 4 score); assay type: in vivo, mice
# Method: as §1, §2
# [5] = test system: B16.F10 melanoma cells; experiment: Therapeutic vaccination against metastatic B16.F10 melanoma (lung metastases, survival)
# Method: Therein, C57BL/6 mice were challenged with 10^5 metastatic B16.F10 melanoma cells intravenously. Four days later, mice were vaccinated with 100 μg of the tumor-associated antigen V, 100 μg CD40 FGK45, and 100 μg S-27609 in combinations as indicated. After 24 days, mice were killed, lungs were removed, and metastatic surface tumor nodules were enumerated with the aid of a dissecting microscope.
# Mice were injected with 10^5 B16.F10 melanoma tumor cells intravenously to establish lung metastases. Four days later, naive or tumor-bearing mice were intravenously vaccinated with 100 μg V peptide, 100 μg anti-CD40, and 100 μg of the TLR7 agonist S-27609 in various combinations as indicated. Lungs were harvested approximately 20 days later, and metastases were enumerated with the aid of a dissection microscope. Alternatively, mice were monitored for survival over the next 90 days.
# C57BL/6 mice were challenged with 10^5 metastatic B16.F10 melanoma cells intravenously. Four days later, mice were vaccinated with 100 μg of the tumor-associated antigen V, 100 μg CD40 FGK45, and 100 μg S-27609 in combinations as indicated. After 24 days, mice were killed, lungs were removed, and metastatic surface tumor nodules were enumerated with the aid of a dissecting microscope.
Molecule,CD8^+ cells expressing CD107a (degranulation after peptide restimulation) [1],persisting antigen-specific CD8^+ effector population [2],plasma levels of ALT and AST [3],histologic analysis of liver ([4]; 48 hours after 100 μg each i.v.),"semiquantitative score of histologic liver damage ([4]; 48 hours, P=0.026, TLR7* added to CD40)","control of tumor progression (number of lung tumor nodules) ([5]; 10^5 B16.F10 i.v., treatment 4 days later, lungs at 24 days)",mean survival time ([5]; all mice succumbed to lung failure)
Cc1nc2c(N)nc3ccccc3c2n1CC(C)(C)O [TLR7*],approximately 2%,failed to induce a significant pool,no effect on enzyme levels,minor inflammation without any observable coagulative necrosis,significantly reduces liver toxicity associated with CD40 monotherapy,,
SIYDFFVWL [tumor antigen],,,,,,ineffective in controlling tumor progression,29 days
